What all share (assay): inhibition of tumour cell growth, NCI panel, 48 h
In experiment [1] the test system is A549 NSCLC.
Experiment [2] concerns HOP-62 NSCLC.
Experiment [3] concerns HT29 colon.
For experiment [4], the system named is K-562 leukemia.
For experiment [5], the system named is NCI-H226 lung.
For experiment [6], the system named is NCI-H460 lung.
Experiment [7] deals with OVCAR-5 ovarian.
In experiment [8] the test system is OVCAR-8 ovarian.
The subject of experiment [9] is SK-MEL-2 melanoma.
For experiment [10], the system named is SW-620 colon.

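Step 1: Grow cells in 96-well plates. Step 2: Expose to compound for 48 hours at 5 concentrations. Step 3: Interpolate endpoints linearly; if unreached, use highest concentration. GI50 = concentration required for 50% inhibition of growth. Definition used: TGI = concentration required for complete inhibition of growth.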 Bounds are passed on as bounds.

On to `C=C1CC[C@@H](Br)C(C)(C)[C@]12CCC(C)(O)C(Cl)C2` (stereo not given in full), for which the TGI in [1] worked out at 45.2 µM; in [2], 49.7 µM; in experiment [3] it was 33.4 µM; in [4], 49.4 µM; in experiment [5] it was 31 µM; in experiment [6] it was 32.1 µM. The TGI in experiment [7] amounted to 36.9 µM; in experiment [8], 37 µM; in experiment [9], 39.7 µM; in [10], 27.2 µM.

In the case of `O=C(CCl)NC(Cc1ccc(F)cc1)C(=O)O` (stereo not given), the TGI in experiment [1], in experiment [2], in experiment [3], in [4], in experiment [5] and in experiment [6] was over 100 µM throughout. Moreover, the TGI in experiment [7], in experiment [8], in experiment [9] and in [10] was over 100 µM each time.

For the compound `CCOC(=O)[C@H]1Nc2c(cccc2[N+](=O)[O-])[C@H]2OCC[C@@H]12`, the TGI in experiment [1], in experiment [2], in [3], in experiment [4], in experiment [5] and in [6] was over 100 µM in each case. For the same compound, the TGI in [7], in experiment [8], in experiment [9] and in experiment [10] was over 100 µM each time.

As for `CCCCCCCCCCCCCCCC(=O)OCC1CCCN2CCCCC12` (stereo not given), the TGI in experiment [1], in experiment [2], in experiment [3], in experiment [4], in experiment [5] and in experiment [6] was over 100 µM in each case. In addition, the TGI in experiment [7], in experiment [8], in experiment [9] and in experiment [10] was over 100 µM in each case.

Consider `O=C(O)NCc1ccccc1` (tested in a mixture with another compound), for which the TGI is over 100 µM in [1]; over 100 µM in experiment [2]; over 100 µM in experiment [3]; over 77 µM in experiment [4]; over 79.7 µM in [5]; over 87.1 µM in experiment [6]. Further, the TGI in [7] was over 100 µM; in experiment [8] it was over 100 µM; in [9], 33.7 µM; in experiment [10], over 100 µM.

For the compound `CC1CCC(O)(C(C)(C(=O)O)c2ccccc2)CC1` (stereo not given), the TGI in [1], in [2], in experiment [3], in experiment [4], in experiment [5] and in experiment [6] was over 100 µM throughout. Moreover, the TGI in experiment [7], in experiment [8], in [9] and in experiment [10] was over 100 µM each time.

As to `CC[C@H](Nc1nc(N)nc(C)c1C#N)c1nc2cccc(NCc3ccc(C(=O)NO)cc3)c2c(=O)n1-c1ccccc1`, the GI50 in experiment [1] is 2.35 µM; in [2], 2.35 µM; in experiment [3] it was 1.82 µM; in experiment [4], 2.44 µM; in experiment [5], 1.61 µM; in [6], 1.85 µM. In addition, the GI50 in [7] was 1.49 µM; in [8], 2.19 µM; in experiment [9], 2.43 µM; in experiment [10] it was 1.7 µM. The TGI is 5.43 µM in experiment [1]; 6.22 µM in [2]; 4.88 µM in [3]; over 100 µM in experiment [4]; 4.13 µM in experiment [5]; 4.76 µM in [6]. Also, the TGI in [7] amounted to 4.01 µM; in experiment [8], 6.83 µM; in experiment [9] it was 6.21 µM; in [10], 3.92 µM.

With `NC(=S)Nc1cc(Cl)ccc1Cl`, the TGI in [1], in [2], in experiment [3], in [4], in experiment [5] and in experiment [6] was over 100 µM throughout. Also, the TGI in [7], in experiment [8], in [9] and in [10] was over 100 µM throughout.

In the case of `COc1cc(N/N=C/C#N)cc(OC)c1OC`, the TGI in experiment [1], in experiment [2], in [3], in [4], in experiment [5] and in experiment [6] was over 10 µM throughout. The TGI in experiment [7], in [8], in [9] and in experiment [10] was over 10 µM in each case.

For the compound `C/C(=N\Oc1cc(Cl)ncn1)c1ccccn1`, the TGI in experiment [1] is over 100 µM; in [2], over 100 µM; in [3], over 100 µM; in [4], over 100 µM; in [5], over 100 µM; in [6], 67.9 µM. Moreover, the TGI in experiment [7], in experiment [8], in experiment [9] and in [10] was over 100 µM throughout.

In the case of `Cc1cc2c(cc1C)[n+](=O)c(C#N)c(Cl)n2[O-]`, the TGI in experiment [1] was 80.8 µM; in experiment [2], 55.7 µM; in experiment [3] it was 19.7 µM; in experiment [4], over 100 µM; in experiment [5] it was over 100 µM; in experiment [6], 24.2 µM. Further, the TGI in [7] was 25.8 µM; in experiment [8] it was 53.2 µM; in [9], 92.5 µM; in [10], 41.6 µM.

On to `Nc1nncc2c1ccn2C1OC(CO)C(O)C1O` (stereo not given), for which the TGI in experiment [1], in experiment [2], in experiment [3], in experiment [4], in experiment [5] and in [6] was over 100 µM in each case. In addition, the TGI in [7], in experiment [8], in [9] and in experiment [10] was over 100 µM in each case.

These data come from PubChem BioAssay (NCI).
